Assay results from US10588317B2, “Isoxazoline-substituted benzamides and analogues as insecticides” (priority 2015, dated 2020).

Tests used:
Assay type in all cases: in vivo
Diabrotica balteata = Diabrotica balteata (corn root worm), sprayed maize sprouts; conditions: 96 h, application rate 200 ppm, L2 larvae, 4 days after infestation, read-out: effect in at least one of the two categories (mortality or growth inhibition)
Summary of the method: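 Read-out at 4 days post-infestation: mortality and growth inhibition relative to untreated samples. Test solutions (200 ppm, from DMSO stocks) were sprayed onto agar-held maize sprouts, which after drying received 6–10 L2 larvae per well.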

Thrips tabaci = Thrips tabaci (onion thrips): feeding/contact activity; conditions: 144 h, application rate 200 ppm, Thrips population of mixed ages, 6 days after infestation, read-out: mortality
Method: (§1) Sunflower leaf discs were placed on agar in 24-well microtiter plates and sprayed with aqueous test solutions prepared from 10'000 ppm DMSO stock solutions. After drying the leaf discs were infested with a Thrips population of mixed ages. The samples were assessed for mortality 6 days after infestation.

Spodoptera littoralis [1] = test: Spodoptera littoralis (Egyptian cotton leaf worm), sprayed cotton leaf discs; conditions: foliar, 72 h, application rate 200 ppm, L1 larvae, 3 days after infestation, read-out: control (mortality, anti-feeding effect, growth inhibition)
Summary of the method: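 Five first-instar larvae placed on dried cotton leaf discs (on agar) previously sprayed with aqueous dilutions of 10'000 ppm DMSO stocks. Scored at 3 days against untreated discs for mortality, feeding inhibition and growth inhibition; any category above untreated counts as control.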

Myzus persicae = Myzus persicae (green peach aphid): feeding/contact activity; conditions: 144 h, application rate 200 ppm, aphid population of mixed ages, 6 days after infestation, read-out: mortality
Method: Sunflower leaf discs were placed onto agar in a 24-well microtiter plate and sprayed with aqueous test solutions prepared from 10'000 ppm DMSO stock solutions. After drying, the leaf discs were infested with an aphid population of mixed ages. The samples were assessed for mortality 6 days after infestation.

Plutella xylostella = Plutella xylostella (diamond back moth), artificial diet; conditions: 120 h, application rate 200 ppm, L2 larvae, 5 days after infestation, read-out: effect in at least one of the two categories (mortality or growth inhibition)
Summary of the method: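 L2 larvae (10-15 per well) fed on compound-treated, dried artificial diet; test solutions diluted in water from 10'000 ppm DMSO stocks. Readout 5 days post-infestation as mortality or growth inhibition versus untreated diet, with at least 80% effect at 200 ppm as threshold.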

Tetranychus urticae = Tetranychus urticae (two-spotted spider mite): feeding/contact activity; conditions: 192 h, application rate 200 ppm, mixed population (mobile stages), 8 days after infestation, read-out: mortality
Method: as §1, with “Bean” for “Sunflower”, “discs” for “discs were placed”, “were” for “and”, “mite” for “Thrips”, “on mixed population (mobile stages) 8” for “6”

Euschistus heros = Euschistus heros (neotropical brown stink bug), sprayed soybean leaves; conditions: 120 h, application rate 200 ppm, N2 nymphs, 5 days after infestation, read-out: effect in at least one of the two categories (mortality or growth inhibition)
Summary of the method: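 Scored 5 days post-infestation versus untreated controls, for both mortality and growth inhibition: N2 nymphs placed on agar-mounted soybean leaves previously sprayed at 200 ppm with aqueous test solutions from DMSO stocks and left to dry.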

Spodoptera littoralis [2] = test: Spodoptera littoralis (Egyptian cotton leaf worm), uptake by lettuce roots from agar; conditions: 144 h, read-out: effect in at least one of the three categories (mortality, anti-feeding, or growth inhibition); for percent effect (mortality, anti-feeding or growth inhibition) at 12.5 ppm: test rate 12.5 ppm, eggs, 6 days after infestation
Summary of the method: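 Systemic test: Spodoptera eggs placed on lettuce leaves from seedlings raised 7 days on agar containing the compound (diluted from 10'000 ppm DMSO stock). Six days after infestation, larvae scored against untreated controls for mortality, feeding deterrence and growth inhibition.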

CNS(=O)(=O)N1C[C@@H](NC(=O)c2ccc(C3=NO[C@@](c4cc(Cl)cc(C(F)(F)F)c4)(C(F)(F)F)C3)cc2Cl)CO1 [Compound A115, 2-chloro-4-[(5S)-5-[3-chloro-5-(trifluoromethyl)phenyl]-5-(trifluoromethyl)-4H-isoxazol-3-yl]-N-[(4R)-2-(methylsulfamoyl)isoxazolidin-4-yl]benzamide]
≥ 80%: percent effect (mortality or growth inhibition) at 200 ppm (Diabrotica balteata) | mortality at 200 ppm (Thrips tabaci) | mortality at 200 ppm (Spodoptera littoralis [1]) | mortality at 200 ppm (Myzus persicae) | percent effect (mortality or growth inhibition) at 200 ppm (Plutella xylostella) | mortality at 200 ppm (Tetranychus urticae) | percent effect (mortality or growth inhibition) at 200 ppm (Euschistus heros) | percent control (mortality, anti-feedant effect or growth inhibition) at 12.5 ppm (Spodoptera littoralis [2])

CCN(C)S(=O)(=O)N1C[C@@H](NC(=O)c2ccc(C3=NO[C@@](c4cc(Cl)cc(C(F)(F)F)c4)(C(F)(F)F)C3)cc2C)CO1 [Compound A141]
≥ 80%: percent effect (mortality or growth inhibition) at 200 ppm (Diabrotica balteata) | mortality at 200 ppm (Thrips tabaci) | mortality at 200 ppm (Spodoptera littoralis [1]) | mortality at 200 ppm (Myzus persicae) | percent effect (mortality or growth inhibition) at 200 ppm (Plutella xylostella) | mortality at 200 ppm (Tetranychus urticae) | percent effect (mortality or growth inhibition) at 200 ppm (Euschistus heros) | percent control (mortality, anti-feedant effect or growth inhibition) at 12.5 ppm (Spodoptera littoralis [2])

Cc1cc(C2=NO[C@@](c3cccc(C(F)(F)F)c3)(C(F)(F)F)C2)ccc1C(=O)N[C@H]1CON(S(C)(=O)=O)C1 [Compound A159]
≥ 80%: percent effect (mortality or growth inhibition) at 200 ppm (Diabrotica balteata) | mortality at 200 ppm (Thrips tabaci) | mortality at 200 ppm (Spodoptera littoralis [1]) | mortality at 200 ppm (Myzus persicae) | percent effect (mortality or growth inhibition) at 200 ppm (Plutella xylostella) | mortality at 200 ppm (Tetranychus urticae) | percent effect (mortality or growth inhibition) at 200 ppm (Euschistus heros) | percent effect (mortality, anti-feeding or growth inhibition) at 12.5 ppm (Spodoptera littoralis [2])

CS(=O)(=O)N1C[C@@H](NC(=O)c2ccc(C3=NO[C@@](c4cc(Cl)cc(Cl)c4)(C(F)(F)F)C3)cc2Cl)CO1 [Compound A116]
≥ 80%: percent effect (mortality or growth inhibition) at 200 ppm (Diabrotica balteata) | mortality at 200 ppm (Thrips tabaci) | mortality at 200 ppm (Spodoptera littoralis [1]) | mortality at 200 ppm (Myzus persicae) | percent effect (mortality or growth inhibition) at 200 ppm (Plutella xylostella) | mortality at 200 ppm (Tetranychus urticae) | percent effect (mortality or growth inhibition) at 200 ppm (Euschistus heros) | percent control (mortality, anti-feedant effect or growth inhibition) at 12.5 ppm (Spodoptera littoralis [2])

Cc1cc(C2=NOC(c3cc(C(F)(F)F)cc(C(F)(F)F)c3)(C(F)(F)F)C2)ccc1C(=O)NC1CON(S(C)(=O)=O)C1 (stereo not shown) [Compound A59]
≥ 80%: percent effect (mortality or growth inhibition) at 200 ppm (Diabrotica balteata) | mortality at 200 ppm (Thrips tabaci) | mortality at 200 ppm (Spodoptera littoralis [1]) | mortality at 200 ppm (Myzus persicae) | percent effect (mortality or growth inhibition) at 200 ppm (Plutella xylostella) | mortality at 200 ppm (Tetranychus urticae) | percent effect (mortality or growth inhibition) at 200 ppm (Euschistus heros) | percent control (mortality, anti-feedant effect or growth inhibition) at 12.5 ppm (Spodoptera littoralis [2])

CS(=O)(=O)N1C[C@@H](NC(=O)c2ccc(C3=NO[C@@](c4cc(Cl)c(Cl)c(Cl)c4)(C(F)(F)F)C3)cc2Cl)CO1 [Compound A145]
≥ 80%: percent effect (mortality or growth inhibition) at 200 ppm (Diabrotica balteata) | mortality at 200 ppm (Thrips tabaci) | mortality at 200 ppm (Spodoptera littoralis [1]) | mortality at 200 ppm (Myzus persicae) | percent effect (mortality or growth inhibition) at 200 ppm (Plutella xylostella) | mortality at 200 ppm (Tetranychus urticae) | percent effect (mortality or growth inhibition) at 200 ppm (Euschistus heros) | percent control (mortality, anti-feedant effect or growth inhibition) at 12.5 ppm (Spodoptera littoralis [2])

CCNS(=O)(=O)N1C[C@@H](NC(=O)c2ccc(C3=NO[C@@](c4cc(Cl)cc(Cl)c4)(C(F)(F)F)C3)cc2C)CO1 [Compound A135, 4-[(5S)-5-(3,5-dichlorophenyl)-5-(trifluoromethyl)-4H-isoxazol-3-yl]-N-[(4R)-2-(ethylsulfamoyl)isoxazolidin-4-yl]-2-methyl-benzamide]
≥ 80%: percent effect (mortality or growth inhibition) at 200 ppm (Diabrotica balteata) | mortality at 200 ppm (Thrips tabaci) | mortality at 200 ppm (Spodoptera littoralis [1]) | mortality at 200 ppm (Myzus persicae) | percent effect (mortality or growth inhibition) at 200 ppm (Plutella xylostella) | mortality at 200 ppm (Tetranychus urticae) | percent effect (mortality or growth inhibition) at 200 ppm (Euschistus heros) | percent control (mortality, anti-feedant effect or growth inhibition) at 12.5 ppm (Spodoptera littoralis [2])

CCN(C)S(=O)(=O)N1C[C@@H](NC(=O)c2ccc(C3=NO[C@@](c4cc(Cl)cc(Cl)c4)(C(F)(F)F)C3)cc2C)CO1 [Compound A142]
≥ 80%: percent effect (mortality or growth inhibition) at 200 ppm (Diabrotica balteata) | mortality at 200 ppm (Thrips tabaci) | mortality at 200 ppm (Spodoptera littoralis [1]) | mortality at 200 ppm (Myzus persicae) | percent effect (mortality or growth inhibition) at 200 ppm (Plutella xylostella) | mortality at 200 ppm (Tetranychus urticae) | percent effect (mortality or growth inhibition) at 200 ppm (Euschistus heros) | percent control (mortality, anti-feedant effect or growth inhibition) at 12.5 ppm (Spodoptera littoralis [2])

CCNS(=O)(=O)N1C[C@@H](NC(=O)c2ccc(C3=NO[C@@](c4cc(Cl)cc(C(F)(F)F)c4)(C(F)(F)F)C3)cc2C)CO1 [Compound A134]
≥ 80%: percent effect (mortality or growth inhibition) at 200 ppm (Diabrotica balteata) | mortality at 200 ppm (Thrips tabaci) | mortality at 200 ppm (Spodoptera littoralis [1]) | mortality at 200 ppm (Myzus persicae) | percent effect (mortality or growth inhibition) at 200 ppm (Plutella xylostella) | mortality at 200 ppm (Tetranychus urticae) | percent effect (mortality or growth inhibition) at 200 ppm (Euschistus heros) | percent control (mortality, anti-feedant effect or growth inhibition) at 12.5 ppm (Spodoptera littoralis [2])

COCCN(C)S(=O)(=O)N1CC(NC(=O)c2ccc(C3=NO[C@@](c4cc(Cl)c(Cl)c(Cl)c4)(C(F)(F)F)C3)cc2C)CO1 (stereo partly drawn) [Compound A90, N-[2-[2-methoxyethyl(methyl)sulfamoyl]isoxazolidin-4-yl]-2-methyl-4-[(5S)-5-(3,4,5-trichlorophenyl)-5-(trifluoromethyl)-4H-isoxazol-3-yl]benzamide]
≥ 80%: percent effect (mortality or growth inhibition) at 200 ppm (Diabrotica balteata) | mortality at 200 ppm (Thrips tabaci) | mortality at 200 ppm (Spodoptera littoralis [1]) | mortality at 200 ppm (Myzus persicae) | percent effect (mortality or growth inhibition) at 200 ppm (Plutella xylostella) | mortality at 200 ppm (Tetranychus urticae) | percent effect (mortality or growth inhibition) at 200 ppm (Euschistus heros) | percent control (mortality, anti-feedant effect or growth inhibition) at 12.5 ppm (Spodoptera littoralis [2])

CN(C)S(=O)(=O)N1C[C@@H](NC(=O)c2ccc(C3=NO[C@@](c4cc(Cl)c(Cl)c(Cl)c4)(C(F)(F)F)C3)cc2Cl)CO1 [Compound A109, 2-chloro-N-[(4R)-2-(dimethylsulfamoyl)isoxazolidin-4-yl]-4-[(5S)-5-(3,4,5-trichlorophenyl)-5-(trifluoromethyl)-4H-isoxazol-3-yl]benzamide]
≥ 80%: percent effect (mortality or growth inhibition) at 200 ppm (Diabrotica balteata) | mortality at 200 ppm (Thrips tabaci) | mortality at 200 ppm (Spodoptera littoralis [1]) | mortality at 200 ppm (Myzus persicae) | percent effect (mortality or growth inhibition) at 200 ppm (Plutella xylostella) | mortality at 200 ppm (Tetranychus urticae) | percent effect (mortality or growth inhibition) at 200 ppm (Euschistus heros) | percent control (mortality, anti-feedant effect or growth inhibition) at 12.5 ppm (Spodoptera littoralis [2])

Cc1cc(C2=NO[C@@](c3cc(Cl)c(Cl)c(Cl)c3)(C(F)(F)F)C2)ccc1C(=O)N[C@H]1CON(S(N)(=O)=O)C1 [Compound A68, 2-methyl-N-[(4R)-2-sulfamoylisoxazolidin-4-yl]-4-[(5S)-5-(3,4,5-trichlorophenyl)-5-(trifluoromethyl)-4H-isoxazol-3-yl]benzamide]
≥ 80%: percent effect (mortality or growth inhibition) at 200 ppm (Diabrotica balteata) | mortality at 200 ppm (Thrips tabaci) | mortality at 200 ppm (Spodoptera littoralis [1]) | mortality at 200 ppm (Myzus persicae) | percent effect (mortality or growth inhibition) at 200 ppm (Plutella xylostella) | mortality at 200 ppm (Tetranychus urticae) | percent effect (mortality or growth inhibition) at 200 ppm (Euschistus heros) | percent control (mortality, anti-feedant effect or growth inhibition) at 12.5 ppm (Spodoptera littoralis [2])

Cc1cc(C2=NO[C@@](c3cccc(C(F)(F)F)c3)(C(F)(F)F)C2)ccc1C(=O)N[C@H]1CON(S(=O)(=O)N(C)C)C1 [Compound A111]
≥ 80%: percent effect (mortality or growth inhibition) at 200 ppm (Diabrotica balteata) | mortality at 200 ppm (Thrips tabaci) | mortality at 200 ppm (Spodoptera littoralis [1]) | mortality at 200 ppm (Myzus persicae) | percent effect (mortality or growth inhibition) at 200 ppm (Plutella xylostella) | mortality at 200 ppm (Tetranychus urticae) | percent effect (mortality or growth inhibition) at 200 ppm (Euschistus heros) | percent effect (mortality, anti-feeding or growth inhibition) at 12.5 ppm (Spodoptera littoralis [2])

CCS(=O)(=O)N1CC(NC(=O)c2ccc(C3=NO[C@@](c4cc(Cl)c(F)c(Cl)c4)(C(F)(F)F)C3)cc2Br)CO1 (stereo partly drawn) [Compound A44, 2-bromo-4-[(5S)-5-(3,5-dichloro-4-fluoro-phenyl)-5-(trifluoromethyl)-4H-isoxazol-3-yl]-N-(2-ethylsulfonylisoxazolidin-4-yl)benzamide]
≥ 80%: percent effect (mortality or growth inhibition) at 200 ppm (Diabrotica balteata) | mortality at 200 ppm (Thrips tabaci) | mortality at 200 ppm (Spodoptera littoralis [1]) | mortality at 200 ppm (Myzus persicae) | percent effect (mortality or growth inhibition) at 200 ppm (Plutella xylostella) | mortality at 200 ppm (Tetranychus urticae) | percent effect (mortality or growth inhibition) at 200 ppm (Euschistus heros) | percent control (mortality, anti-feedant effect or growth inhibition) at 12.5 ppm (Spodoptera littoralis [2])
